Where a SMILES comes first, the peptide text is derived from it. Bridges are numbered along the chain shown (N, C = ends). [ ]: non-standard residue; d: D form. NMePhe(3-Cl) = CN[C@@H](Cc1cccc(Cl)c1)C(=O)O; NMeW = CN[C@@H](Cc1c[nH]c2ccccc12)C(=O)O; NMeY = CN[C@@H](Cc1ccc(O)cc1)C(=O)O; PEG4 = NCCOCCOCCOCCOCCC(=O)O; Nva = CCC[C@H](N)C(=O)O; Abu = CC[C@H](N)C(=O)O

Sequence of transferrin receptor (hTfR) (P02786 whole entry): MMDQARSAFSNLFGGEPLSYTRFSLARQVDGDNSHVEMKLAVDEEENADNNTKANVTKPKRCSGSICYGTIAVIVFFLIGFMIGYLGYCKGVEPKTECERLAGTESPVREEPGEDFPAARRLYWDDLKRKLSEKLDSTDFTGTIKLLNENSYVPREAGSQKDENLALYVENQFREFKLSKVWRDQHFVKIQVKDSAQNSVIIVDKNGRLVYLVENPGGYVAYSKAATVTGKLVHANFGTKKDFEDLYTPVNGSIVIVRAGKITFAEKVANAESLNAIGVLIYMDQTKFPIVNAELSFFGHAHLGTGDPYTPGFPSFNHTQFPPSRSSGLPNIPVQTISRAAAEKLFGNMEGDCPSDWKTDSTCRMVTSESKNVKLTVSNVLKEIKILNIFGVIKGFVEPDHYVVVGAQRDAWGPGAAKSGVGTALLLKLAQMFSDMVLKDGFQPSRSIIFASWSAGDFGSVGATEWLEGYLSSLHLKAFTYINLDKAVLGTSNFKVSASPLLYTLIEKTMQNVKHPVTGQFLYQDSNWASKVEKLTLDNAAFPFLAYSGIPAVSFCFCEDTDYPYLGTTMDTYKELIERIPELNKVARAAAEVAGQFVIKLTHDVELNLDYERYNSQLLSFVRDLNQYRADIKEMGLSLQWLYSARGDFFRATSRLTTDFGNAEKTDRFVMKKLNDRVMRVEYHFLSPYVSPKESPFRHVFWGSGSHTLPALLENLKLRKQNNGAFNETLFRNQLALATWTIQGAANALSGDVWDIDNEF

This assay has as its target transferrin receptor (hTfR) (Homo sapiens, UniProt P02786). The experiment in a line: Intermolecular interaction evaluation test between transferrin receptor (hTfR) and peptide by surface plasmon resonance (SPR). Format: binding. As to conditions: binding to hTfR by SPR; Table 2 peptides; read-out: KD value (SPR) class. The essentials: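 Receptor was Ni-captured and EDC/NHS-fixed on an NTA chip; running buffer HEPES pH 8.0 with NaCl, Tween 20, BSA and 1.0% DMSO.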
Regarding `CC[C@H](C)[C@@H]1NC(=O)[C@H](Cc2ccc(OC)cc2)NC(=O)[C@H](Cc2ccc(O)cc2)NC(=O)[C@H](CC(N)=O)NC(=O)[C@H](Cc2c[nH]c3ccccc23)N(C)C(=O)[C@H](C(C)C)NC(=O)[C@H](Cc2cccc(Cl)c2)N(C)C(=O)[C@H](CCC(=O)N[C@H](CCC(=O)O)C(=O)O)NC(=O)[C@H](C)NC(=O)CSC[C@@H](C(N)=O)NC(=O)[C@H](Cc2ccc(O)cc2)N(C)C(=O)[C@H](Cc2ccccc2)NC(=O)[C@@H](CCCNC(=N)N)NC(=O)[C@H](CCCNC(=N)N)NC(=O)[C@H]([C@@H](C)CC)NC1=O` [compound 241], the Kd (usually a measure of binding affinity in units of concentration) fell in the range of 1 to 100 nM.
Under `CC[C@H](C)[C@@H]1NC(=O)[C@H](Cc2ccc(OC)cc2)NC(=O)[C@H](Cc2ccc(O)cc2)NC(=O)[C@H](CC(N)=O)NC(=O)[C@H](Cc2c[nH]c3ccccc23)N(C)C(=O)[C@H](C(C)C)NC(=O)[C@H](Cc2cccc(Cl)c2)N(C)C(=O)[C@H](CCCCNC(=N)N)NC(=O)[C@H](C)NC(=O)CSC[C@@H](C(N)=O)NC(=O)[C@H](Cc2ccc(O)cc2)N(C)C(=O)[C@H](Cc2ccccc2)NC(=O)[C@@H](CCCNC(=N)N)NC(=O)[C@H](CCCNC(=N)N)NC(=O)[C@H]([C@@H](C)CC)NC1=O` [compound 242] stands 1 to 100 nM.
Under `CC[C@@H]1NC(=O)[C@H](C)NC(=O)CSC[C@@H](C(=O)NCCOCCOCCOCCOCCC(N)=O)NC(=O)[C@H](Cc2ccc(O)cc2)N(C)C(=O)[C@H](Cc2ccccc2)NC(=O)[C@@H](CCCNC(=N)N)NC(=O)[C@H](CCCNC(=N)N)NC(=O)[C@H]([C@@H](C)CC)NC(=O)[C@H]([C@@H](C)CC)NC(=O)[C@H](Cc2ccc(OC)cc2)NC(=O)[C@H](Cc2ccc(O)cc2)NC(=O)[C@H](CC(N)=O)NC(=O)[C@H](Cc2c[nH]c3ccccc23)N(C)C(=O)[C@H](C(C)C)NC(=O)[C@H](Cc2cccc(Cl)c2)N(C)C1=O` [compound 243] ({CH2CO}-A[Abu][NMePhe(3-Cl)]V[NMeW]NYY(Me)IIR[dR]F[NMeY]C[PEG4]-NH2; thioether N-15) stands 1 to 100 nM; under `CCC[C@@H]1NC(=O)[C@H](C)NC(=O)CSC[C@@H](C(=O)NCCOCCOCCOCCOCCC(N)=O)NC(=O)[C@H](Cc2ccc(O)cc2)N(C)C(=O)[C@H](Cc2ccccc2)NC(=O)[C@@H](CCCNC(=N)N)NC(=O)[C@H](CCCNC(=N)N)NC(=O)[C@H]([C@@H](C)CC)NC(=O)[C@H]([C@@H](C)CC)NC(=O)[C@H](Cc2ccc(OC)cc2)NC(=O)[C@H](Cc2ccc(O)cc2)NC(=O)[C@H](CC(N)=O)NC(=O)[C@H](Cc2c[nH]c3ccccc23)N(C)C(=O)[C@H](C(C)C)NC(=O)[C@H](Cc2cccc(Cl)c2)N(C)C1=O` [compound 244] ({CH2CO}-A[Nva][NMePhe(3-Cl)]V[NMeW]NYY(Me)IIR[dR]F[NMeY]C[PEG4]-NH2; thioether N-15), 1 to 100 nM.
Under `CC[C@H](C)[C@@H]1NC(=O)[C@H](Cc2ccc(O)cc2)NC(=O)[C@H](Cc2ccc(O)cc2)NC(=O)[C@H](CC(N)=O)NC(=O)[C@H](Cc2c[nH]c3ccccc23)NC(=O)[C@H](C(C)C)NC(=O)[C@H](Cc2ccccc2)NC(=O)[C@H](C(C)C)NC(=O)[C@H](C)NC(=O)CSC[C@@H](C(N)=O)NC(=O)[C@H](Cc2ccc(O)cc2)N(C)C(=O)[C@H](Cc2ccc(O)cc2)NC(=O)[C@H](CCCNC(=N)N)NC(=O)[C@H](CCCNC(=N)N)NC(=O)[C@H](CCC(=O)O)NC1=O` [compound 247] stands 1 to 100 nM.
Take `CC[C@H](C)[C@@H]1NC(=O)[C@H](Cc2ccc(O)cc2)NC(=O)[C@H](Cc2ccc(O)cc2)NC(=O)[C@H](CC(N)=O)NC(=O)[C@H](Cc2c[nH]c3ccccc23)NC(=O)[C@H](C(C)C)NC(=O)[C@H](Cc2ccccc2)NC(=O)[C@H](C(C)C)NC(=O)[C@H](C)NC(=O)CSC[C@@H](C(N)=O)NC(=O)[C@H](Cc2ccc(O)cc2)N(C)C(=O)[C@H](Cc2ccc(O)cc2)NC(=O)[C@H](CCCNC(=N)N)NC(=O)[C@H](CCCNC(=N)N)NC(=O)[C@H](CCCNC(=N)N)NC1=O` [compound 248]: the Kd was in the range of 1 to 100 nM.
In the case of `CC[C@H](C)[C@@H]1NC(=O)[C@H](Cc2ccc(O)cc2)NC(=O)[C@H](Cc2ccc(O)cc2)NC(=O)[C@H](CC(N)=O)NC(=O)[C@H](Cc2c[nH]c3ccccc23)NC(=O)[C@H](C(C)C)NC(=O)[C@H](Cc2ccccc2)NC(=O)[C@H](C(C)C)NC(=O)[C@H](C)NC(=O)CSC[C@@H](C(N)=O)NC(=O)[C@H](Cc2ccc(O)cc2)N(C)C(=O)[C@H](Cc2ccc(O)cc2)NC(=O)[C@H](CCCNC(=N)N)NC(=O)[C@H](CCCNC(=N)N)NC(=O)[C@H](CCCCN)NC1=O` [compound 249] ({CH2CO}-AVFVWNYYIKRRY[NMeY]C-NH2; thioether N-15), the Kd is < 1 nM.
For `CC[C@H](C)[C@@H]1NC(=O)[C@H](Cc2ccc(O)cc2)NC(=O)[C@H](Cc2ccc(O)cc2)NC(=O)[C@H](CC(N)=O)NC(=O)[C@H](Cc2c[nH]c3ccccc23)NC(=O)[C@H](C(C)C)NC(=O)[C@H](Cc2ccccc2)NC(=O)[C@H](C(C)C)NC(=O)[C@H](C)NC(=O)CSC[C@@H](C(N)=O)NC(=O)[C@H](Cc2ccc(O)cc2)N(C)C(=O)[C@H](Cc2ccc(O)cc2)NC(=O)[C@H](CCCNC(=N)N)NC(=O)[C@H](CCC(=O)O)NC(=O)[C@H]([C@@H](C)CC)NC1=O` [compound 251] the value was 1 to 100 nM.
Under `CC[C@H](C)[C@@H]1NC(=O)[C@H](Cc2ccc(O)cc2)NC(=O)[C@H](Cc2ccc(O)cc2)NC(=O)[C@H](CC(N)=O)NC(=O)[C@H](Cc2c[nH]c3ccccc23)NC(=O)[C@H](C(C)C)NC(=O)[C@H](Cc2ccccc2)NC(=O)[C@H](C(C)C)NC(=O)[C@H](C)NC(=O)CSC[C@@H](C(N)=O)NC(=O)[C@H](Cc2ccc(O)cc2)N(C)C(=O)[C@H](Cc2ccc(O)cc2)NC(=O)[C@H](C)NC(=O)[C@H](CCC(=O)O)NC(=O)[C@H]([C@@H](C)CC)NC1=O` [compound 252] stands 100 to 1000 nM; under `CC[C@H](C)[C@@H]1NC(=O)[C@H](Cc2ccc(O)cc2)NC(=O)[C@H](Cc2ccc(O)cc2)NC(=O)[C@H](CC(N)=O)NC(=O)[C@H](Cc2c[nH]c3ccccc23)NC(=O)[C@H](C(C)C)NC(=O)[C@H](Cc2ccccc2)NC(=O)[C@H](C(C)C)NC(=O)[C@H](C)NC(=O)CSC[C@@H](C(N)=O)NC(=O)[C@H](Cc2ccc(O)cc2)N(C)C(=O)[C@H](Cc2ccc(O)cc2)NC(=O)[C@H](CCCNC(=N)N)NC(=O)[C@H](C)NC(=O)[C@H]([C@@H](C)CC)NC1=O` [compound 253], 1 to 100 nM; under `CC[C@H](C)[C@@H]1NC(=O)[C@H](Cc2ccc(O)cc2)NC(=O)[C@H](Cc2ccc(O)cc2)NC(=O)[C@H](CC(N)=O)NC(=O)[C@H](Cc2c[nH]c3ccccc23)NC(=O)[C@H](C(C)C)NC(=O)[C@H](Cc2ccccc2)NC(=O)[C@H](C(C)C)NC(=O)[C@H](C)NC(=O)CSC[C@@H](C(N)=O)NC(=O)[C@H](Cc2ccc(O)cc2)N(C)C(=O)[C@H](Cc2ccc(O)cc2)NC(=O)[C@H](CCCNC(=N)N)NC(=O)[C@H](CCCCN)N(C)C(=O)[C@H]([C@@H](C)CC)NC1=O` [compound 254], 1 to 100 nM.
Regarding `CC[C@H](C)[C@@H]1NC(=O)[C@H](Cc2ccc(O)cc2)NC(=O)[C@H](Cc2ccc(O)cc2)NC(=O)[C@H](CC(N)=O)NC(=O)[C@H](Cc2c[nH]c3ccccc23)NC(=O)[C@H](C(C)C)NC(=O)[C@H](Cc2ccccc2)NC(=O)[C@H](C(C)C)NC(=O)[C@H](C)NC(=O)CSC[C@@H](C(N)=O)NC(=O)[C@H](Cc2ccc(O)cc2)N(C)C(=O)[C@H](Cc2ccc(O)cc2)NC(=O)[C@H](CCCNC(=N)N)NC(=O)[C@H](CCCCN)NC(=O)[C@H]([C@@H](C)CC)NC1=O` [compound 255], the Kd was < 1 nM.
Under `CC[C@H](C)[C@@H]1NC(=O)[C@H](Cc2ccc(O)cc2)NC(=O)[C@H](Cc2ccc(O)cc2)NC(=O)[C@H](CC(N)=O)NC(=O)[C@H](Cc2c[nH]c3ccccc23)NC(=O)[C@H](C(C)C)NC(=O)[C@H](Cc2ccccc2)NC(=O)[C@H](C(C)C)NC(=O)[C@H](C)NC(=O)CSC[C@@H](C(N)=O)NC(=O)[C@H](Cc2ccc(O)cc2)N(C)C(=O)[C@H](Cc2ccc(O)cc2)NC(=O)[C@H](C)NC(=O)[C@H](CCCNC(=N)N)NC(=O)[C@H]([C@@H](C)CC)NC1=O` [compound 256] stands 1 to 100 nM; under `CC[C@H](C)[C@@H]1NC(=O)[C@H](Cc2ccc(O)cc2)NC(=O)[C@H](Cc2ccc(O)cc2)NC(=O)[C@H](CC(N)=O)NC(=O)[C@H](Cc2c[nH]c3ccccc23)NC(=O)[C@H](C(C)C)NC(=O)[C@H](Cc2ccccc2)NC(=O)[C@H](C(C)C)NC(=O)[C@H](C)NC(=O)CSC[C@@H](C(N)=O)NC(=O)[C@H](Cc2ccc(O)cc2)N(C)C(=O)[C@H](Cc2ccc(O)cc2)NC(=O)[C@H](CCC(=O)O)NC(=O)[C@H](CCCNC(=N)N)NC(=O)[C@H]([C@@H](C)CC)NC1=O` [compound 257], 1 to 100 nM.
Consider `CC[C@H](C)[C@@H]1NC(=O)[C@H](Cc2ccc(O)cc2)NC(=O)[C@H](Cc2ccc(O)cc2)NC(=O)[C@H](CC(N)=O)NC(=O)[C@H](Cc2c[nH]c3ccccc23)NC(=O)[C@H](C(C)C)NC(=O)[C@H](Cc2ccccc2)NC(=O)[C@H](C(C)C)NC(=O)[C@H](C)NC(=O)CSC[C@@H](C(N)=O)NC(=O)[C@H](Cc2ccc(O)cc2)N(C)C(=O)[C@H](Cc2ccc(O)cc2)NC(=O)[C@H](CCCCN)NC(=O)[C@H](CCCNC(=N)N)NC(=O)[C@H]([C@@H](C)CC)NC1=O` [compound 258], for which the Kd fell in the range of 1 to 100 nM.
Take `CC[C@H](C)[C@@H]1NC(=O)[C@H](Cc2ccc(O)cc2)NC(=O)[C@H](Cc2ccc(O)cc2)NC(=O)[C@H](CC(N)=O)NC(=O)[C@H](Cc2c[nH]c3ccccc23)NC(=O)[C@H](C(C)C)NC(=O)[C@H](Cc2ccccc2)NC(=O)[C@H](C(C)C)NC(=O)[C@H](C)NC(=O)CSC[C@@H](C(N)=O)NC(=O)[C@H](Cc2ccc(O)cc2)N(C)C(=O)[C@H](CCC(=O)O)NC(=O)[C@H](CCCNC(=N)N)NC(=O)[C@H](CCCNC(=N)N)NC(=O)[C@H]([C@@H](C)CC)NC1=O` [compound 259]: the Kd was in the range of 1 to 100 nM.

The record behind these values is patent publication US20230203098A1, “HUMAN TRANSFERRIN RECEPTOR BINDING PEPTIDE” (priority 2020, published 2023).
